Source: patent publication US9216960B2, “Spiro[2.4]heptanes for treatment of Flaviviridae infections” (University of Georgia Research Foundation, Inc., priority 2012, dated 2015)

Columns and labels:
[1] = test system: hepatitis C virus genotype 1A; settings: Hu7 RNA replicon assay; cited from earlier work
[2] = test system: hepatitis C virus genotype 1B; settings: Hu7 RNA replicon assay; cited from earlier work

melting point	SMILES	EC50 [1]	EC50 [2]
114 to 116 °C	O=c1ccn([C@H]2[C@H](O)[C@H](O)[C@@H](CO)C23CC3)c(=O)[nH]1		
	Nc1ncnc2c1ncn2[C@H]1[C@H](O)[C@H](O)[C@@H](CO)C12CC2 [cyclopropy-spirocarbocyclic adenosine, (4R,5S,6R,7R)-4-(6-amino-9H-pur-9-yl)-7-(hydroxymethyl)spiro[2.4]heptane-5,6 diol]	0.273 µM	0.368 µM
